# Measured values: ChEMBL document CHEMBL1781941, “Synthesis and antitumor activity of 5-[1-(3-(dimethylamino)propyl)-5-halogenated-2-oxoindolin-(3Z)-ylidenemethyl]-2,4-dimethyl-1H-pyrrole-3-carboxamides” (Bioorg Med Chem Lett, 2011)
# Columns and labels:
# MDA-MB-231 [1] = test: Antitumor activity against human MDA-MB-231 cells; format: functional, cell-based
# HL-60 = test: Antitumor activity against human HL60 cells; format: functional, cell-based
# K562 [2] = test: Antitumor activity against human K562 cells; format: functional, cell-based
# HUVEC [3] = test: Inhibition of bFGF-induced cell proliferation in HUVEC by MTT assay; format: functional, cell-based; conditions: Homo sapiens
# IM-9 [4] = test: Antitumor activity against human IM9 cells; format: functional, cell-based
# A549 [5] = test: Antitumor activity against human A549 cells; format: functional, cell-based
# HUVEC [6] = test: Inhibition of VEGF-induced cell proliferation in HUVEC by MTT assay; format: functional, cell-based; conditions: Homo sapiens
# K562 [7] = test: Ratio of Sunitinib IC50 to compound IC50 for human K562 cells; format: functional
# MDA-MB-231 [8] = test: Ratio of Sunitinib IC50 to compound IC50 for human MDA-MB-231 cells; format: functional
# IM-9 [9] = test: Ratio of Sunitinib IC50 to compound IC50 for human IM9 cells; format: functional
# A549 [10] = test: Ratio of Sunitinib IC50 to compound IC50 for human A549 cells; format: functional
SMILES,IC50 (MDA-MB-231 [1]) [µM],IC50 (HL-60) [µM],IC50 (K562 [2]) [µM],IC50 (IM-9 [4]) [µM],IC50 (A549 [5]) [µM],IC50 (HUVEC [3]) [µM],IC50 (HUVEC [6]) [µM],Ratio IC50 (K562 [7]),Ratio IC50 (MDA-MB-231 [8]),Ratio IC50 (IM-9 [9]),Ratio IC50 (A549 [10])
Cc1[nH]c(/C=C2\C(=O)N(CCCN(C)C)c3ccc(Cl)cc32)c(C)c1C(=O)N1CCCC1,11.5,7.82,6.58,9.36,14,4.65,3.92,–,–,–,–
Cc1[nH]c(/C=C2\C(=O)N(CCCN(C)C)c3ccc(F)cc32)c(C)c1C(=O)N(C)C,19.2,14.8,13.6,17.9,25.2,19.9,5.23,–,–,–,–
Cc1[nH]c(/C=C2\C(=O)N(CCCN(C)C)c3ccc(Cl)cc32)c(C)c1C(=O)N(C)C,12,7.3,6.74,9.42,16,8.27,1.62,–,–,–,–
CCN(CC)C(=O)c1c(C)[nH]c(/C=C2\C(=O)N(CCCN(C)C)c3ccc(F)cc32)c1C,13.7,10.7,4.88,14.1,29.9,10.5,3.96,–,–,–,–
CCN(CC)C(=O)c1c(C)[nH]c(/C=C2\C(=O)N(CCCN(C)C)c3ccc(Cl)cc32)c1C,6.82,4.02,2.07,6.28,13.1,4.87,2.9,–,–,–,–
Cc1[nH]c(/C=C2\C(=O)N(CCCN(C)C)c3ccc(F)cc32)c(C)c1C(=O)N1CCCC1,13.3,11.9,11.6,19.1,21.2,11.3,6.56,–,–,–,–
Cc1[nH]c(/C=C2\C(=O)N(CCCN(C)C)c3ccc(F)cc32)c(C)c1C(=O)N1CCCCC1,11.5,4.39,4.09,4.83,18.7,5.27,4.06,–,–,–,–
Cc1[nH]c(/C=C2\C(=O)N(CCCN(C)C)c3ccc(Cl)cc32)c(C)c1C(=O)N1CCCCC1,5.68,3.99,2.14,4.49,7.33,2.04,1.31,–,–,–,–
Cc1[nH]c(/C=C2\C(=O)N(CCCN(C)C)c3ccc(Cl)cc32)c(C)c1C(=O)N1CCN(C)CC1,5.06,3.56,1.41,1.47,6.78,2,1.34,–,–,–,–
Cc1[nH]c(/C=C2\C(=O)N(CCCN(C)C)c3ccc(F)cc32)c(C)c1C(=O)N1CCN(C)CC1,9,7.59,5.27,4.06,11.1,5.64,2.99,–,–,–,–
CCN1CCN(C(=O)c2c(C)[nH]c(/C=C3\C(=O)N(CCCN(C)C)c4ccc(F)cc43)c2C)CC1,8.09,13.4,5.98,7.26,13.7,3.38,1.58,–,–,–,–
CCN(CC)CCNC(=O)c1c(C)[nH]c(/C=C2\C(=O)Nc3ccc(F)cc32)c1C [SUNITINIB],4.51,3.53,2.41,1.35,6.61,4.04,2.75,–,–,–,–

# These reach a lower IC50 (MDA-MB-231 [1]). Values come first.
IC50 (MDA-MB-231 [1]) [µM],IC50 (HL-60) [µM],IC50 (K562 [2]) [µM],IC50 (IM-9 [4]) [µM],IC50 (A549 [5]) [µM],SMILES,IC50 (HUVEC [3]) [µM],IC50 (HUVEC [6]) [µM],Ratio IC50 (K562 [7]),Ratio IC50 (MDA-MB-231 [8]),Ratio IC50 (IM-9 [9]),Ratio IC50 (A549 [10])
3.46,2.62,2.45,2.25,8.88,CCN1CCN(C(=O)c2c(C)[nH]c(/C=C3\C(=O)N(CCCN(C)C)c4ccc(Cl)cc43)c2C)CC1,1.77,1.02,–,–,–,–
2.86,1.82,1.33,1.63,5.08,CCN(CC)CCNC(=O)c1c(C)[nH]c(/C=C2\C(=O)N(CCCN(C)C)c3ccc(F)cc32)c1C,1.68,0.71,–,–,–,–
2.44,1.17,0.53,0.45,3.52,Cc1[nH]c(/C=C2\C(=O)N(CCCN(C)C)c3ccc(Cl)cc32)c(C)c1C(=O)NCCN(C)C,3.36,1.11,–,–,–,–
2.29,1.07,0.52,0.47,3.11,CCN(CC)CCNC(=O)c1c(C)[nH]c(/C=C2\C(=O)N(CCCN(C)C)c3ccc(Cl)cc32)c1C.Cl.Cl.Cl,3.08,2.72,4.6,2.1,2.1,2.1
2.14,2.73,1.46,1.36,2.94,Cc1[nH]c(/C=C2\C(=O)N(CCCN(C)C)c3ccc(F)cc32)c(C)c1C(=O)NCCN(C)C,1.42,0.48,–,–,–,–
